From patent US8168797B2, “Oxazolidinone derivative with difluorophenyl moiety, pharmaceutically acceptable salt thereof, preparation method thereof and antibiotic composition containing the same as an active ingredient” (Korea Institute of Science and Technology, priority 2008, dated 2012)
Converted amounts (≈) assume the structure as drawn.

Columns and labels:
Format in all cases: cell-based
[1] = test system: Gram-positive strains and resistant bacteria including MRSA and vancomycin resistant enterococci; experiment: MIC by agar dilution, text summary over the strain panel; settings: read-out: MIC against Haemophilus influenza, Coagulase negative staphylococci and vancomycin resistant enterococci (VRE)
Source text: (§1) To this end, the compound of Example 2 and the currently used oxazolidinone class Linezolid were examined for minimal inhibitory concentration (hereinafter, referred to as “MIC”) against Gram-positive strains and resistant bacteria including methicillin-resistant Staphylococcus aureus (MRSA) and vancomycin resistant enterococci by an agar dilution method using Muller-Hinton agar.
(§2) As used herein, the term MIC is intended to refer to the lowest concentration of an antibiotic that will inhibit the growth of a microorganism. MIC values are expressed as μg/ml. Bacterial strains used for this assay included Haemophilus influenza, Coagulase negative staphylococi, Staphylcoccus aureus (MRSA), Enterococcus faecalis (VER), Enterococcus faecium (VR 1, VR 2), and Vancomycin resistant enterococci 1˜6.
(§3) After being incubated for 18 hours in a Muller-Hinton broth, the strains were transferred to fresh broth at a concentration of approximately 10^7 CFU/ml. Isolates were distributed with a multipoint inoculator (MIC-2000 Dynatech) at 10^4 CFU per spot onto agar plates containing the compound of the Examples or Comparative Examples.

[2] = test system: Coagulase negative staphylococi; experiment: MIC by agar dilution method using Muller-Hinton agar; settings: read-out: Inhibitory Activity (MIC); strain b: Coagulase negative staphylococi
Source text: as §1, §2, §3

Haemophilus influenza = experiment: as above; settings: read-out: Inhibitory Activity (MIC); strain a: Haemophilus infuenz
Source text: as §1, §2, §3

[3] = test system: Enterococcus faecalis (VRE); experiment: as above; settings: strain d: Enterococcus faecalis (VRE); read-out: Inhibitory Activity (MIC)
Source text: as §1, §2, §3

[4] = test system: Vancomycin resistant enterococci 1; experiment: as above; settings: strain g: Vancomycin resistant enterococci 1; read-out: Inhibitory Activity (MIC)
Source text: as §1, §2, §3

[5] = test system: Enterococcus faecium (VR 2); experiment: as above; settings: strain f: Enterococcus faecium (VR 2); read-out: Inhibitory Activity (MIC)
Source text: as §1, §2, §3

[6] = test system: Vancomycin resistant enterococci 3; experiment: as above; settings: strain i: Vancomycin resistant enterococci 3; read-out: Inhibitory Activity (MIC)
Source text: as §1, §2, §3

[7] = test system: Enterococcus faecium (VR 1); experiment: as above; settings: strain e: Enterococcus faecium (VR 1); read-out: Inhibitory Activity (MIC)
Source text: as §1, §2, §3

[8] = test system: Vancomycin resistant enterococci 2; experiment: as above; settings: strain h: Vancomycin resistant enterococci 2; read-out: Inhibitory Activity (MIC)
Source text: as §1, §2, §3

[9] = test system: Staphylcoccus aureus (MRSA); experiment: as above; settings: Staphylococcus aureus; strain c: Staphylcoccus aureus (MRSA); read-out: Inhibitory Activity (MIC)
Source text: as §1, §2, §3

[10] = test system: Vancomycin resistant enterococci 5; experiment: organism not typed; settings: read-out: Inhibitory Activity (MIC)
Source text: as §1, §2, §3

[11] = test system: Vancomycin resistant enterococci 4; experiment: organism not typed; settings: read-out: Inhibitory Activity (MIC)
Source text: as §1, §2, §3

[12] = test system: Vancomycin resistant enterococci 6; experiment: organism not typed; settings: read-out: Inhibitory Activity (MIC)
Source text: as §1, §2, §3

| Compound | MIC [1] [mg/L] | MIC [2] [mg/L] | MIC (Haemophilus influenza) [mg/L] | MIC [3] [mg/L] | MIC [4] [mg/L] | MIC [5] [mg/L] | MIC [6] [mg/L] | MIC [7] [mg/L] | MIC [8] [mg/L] | MIC [9] [mg/L] | MIC [10] [mg/L] | MIC [11] [mg/L] | MIC [12] [mg/L] |
| --- | --- | --- | --- | --- | --- | --- | --- | --- | --- | --- | --- | --- | --- |
| CC(=O)NC[C@H]1CN(c2ccc(N3CCOCC3)c(F)c2)C(=O)O1 [Linezolid, reference compound] | 1.56 to 3.12 (≈ 4.63 to 9.26 µM) | 3.12 (≈ 9.26 µM) | 3.12 (≈ 9.26 µM) | – | – | – | – | – | – | – | – | – | – |
| CC(=O)NC[C@H]1CN(c2cc(F)c(N3CC(F)C4(CC4)C3)c(F)c2)C(=O)O1 (stereo partly drawn) [Example 2, (S)—N-{{3-[3,5-Difluoro-4-(7-fluoro-5-azaspiro[2,4]heptan-5-yl)phenyl]-2-oxo-5-oxazolidinyl}methyl}acetamide] | – | 0.781 (≈ 2.04 µM) | 0.781 (≈ 2.04 µM) | 1.56 (≈ 4.08 µM) | 3.12 (≈ 8.15 µM) | 1.56 (≈ 4.08 µM) | 3.12 (≈ 8.15 µM) | 1.56 (≈ 4.08 µM) | 1.56 (≈ 4.08 µM) | 1.56 (≈ 4.08 µM) | 0.781 (≈ 2.04 µM) | 0.781 (≈ 2.04 µM) | 0.781 (≈ 2.04 µM) |
